From patent US20260085053A1, “BENZOFURAN DERIVATIVES AS SIK INHIBITORS AND THE USE THEREOF” (BEONE MEDICINES I GMBH, priority 2023, published 2026)

Assays:
[1] = molecular target: T1, SIK1 kinase (aa1-303, Thermo Fisher) (Homo sapiens, UniProt P57059); test: Biochemical activities determination for SIK1 protein (TR-FRET); conditions: 110 uM ATP, 0.5 μM STK1 substrate
T1 construct: SIK1 kinase (aa1-303, Thermo Fisher); purchased Thermo Fisher
Outline: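 TR-FRET kinase assay with SIK1 (aa1-303), 110 uM ATP, 0.5 μM STK1 substrate and 0-10 μM compound in Tris pH 7.5 with MgCl2, EGTA, DTT, Triton X-100. Enzyme preincubated with compound 60 min, reaction 180 min at room temperature; 665/620 nm ratio after overnight detection; IC50 from four-parameter logistic fit.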

[2] = molecular target: T2, SIK3 kinase (aa59-365, Thermo Fisher) (Homo sapiens, UniProt Q9Y2K2); test: Biochemical activities determination for SIK3 protein (TR-FRET); conditions: 125 uM ATP, 0.5 μM STK1 substrate
T2 construct: SIK3 kinase (aa59-365, Thermo Fisher); purchased Thermo Fisher
T2 sequence (Q9Y2K2 59-365): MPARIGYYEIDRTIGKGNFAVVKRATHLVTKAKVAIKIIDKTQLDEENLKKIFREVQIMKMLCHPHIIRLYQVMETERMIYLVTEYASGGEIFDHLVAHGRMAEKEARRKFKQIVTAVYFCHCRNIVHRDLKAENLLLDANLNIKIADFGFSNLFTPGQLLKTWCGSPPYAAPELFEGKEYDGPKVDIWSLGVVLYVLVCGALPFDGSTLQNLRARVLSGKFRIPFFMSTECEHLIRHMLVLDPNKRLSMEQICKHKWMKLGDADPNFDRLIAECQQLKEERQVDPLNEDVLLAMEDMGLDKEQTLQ
Outline: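 SIK3 (aa59-365) was preincubated with compound (0-10 μM) for 60 min at room temperature in Tris buffer pH 7.5. The reaction was then started with 125 uM ATP and 0.5 μM STK1 substrate and run 180 min at room temperature. Phospho-substrate was detected by HTRF (665/620 nm ratio), and IC50 came from a four-parameter logistic fit.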

[3] = molecular target: T3, SIK2 kinase (full length, Thermo Fisher) (Homo sapiens, UniProt Q9H0K1); test: Biochemical activities determination for SIK2 protein (TR-FRET); conditions: 80 uM ATP, 0.5 μM substrate
T3 construct: SIK2 kinase (full length, Thermo Fisher); purchased Thermo Fisher
T3 sequence (Q9H0K1 whole entry): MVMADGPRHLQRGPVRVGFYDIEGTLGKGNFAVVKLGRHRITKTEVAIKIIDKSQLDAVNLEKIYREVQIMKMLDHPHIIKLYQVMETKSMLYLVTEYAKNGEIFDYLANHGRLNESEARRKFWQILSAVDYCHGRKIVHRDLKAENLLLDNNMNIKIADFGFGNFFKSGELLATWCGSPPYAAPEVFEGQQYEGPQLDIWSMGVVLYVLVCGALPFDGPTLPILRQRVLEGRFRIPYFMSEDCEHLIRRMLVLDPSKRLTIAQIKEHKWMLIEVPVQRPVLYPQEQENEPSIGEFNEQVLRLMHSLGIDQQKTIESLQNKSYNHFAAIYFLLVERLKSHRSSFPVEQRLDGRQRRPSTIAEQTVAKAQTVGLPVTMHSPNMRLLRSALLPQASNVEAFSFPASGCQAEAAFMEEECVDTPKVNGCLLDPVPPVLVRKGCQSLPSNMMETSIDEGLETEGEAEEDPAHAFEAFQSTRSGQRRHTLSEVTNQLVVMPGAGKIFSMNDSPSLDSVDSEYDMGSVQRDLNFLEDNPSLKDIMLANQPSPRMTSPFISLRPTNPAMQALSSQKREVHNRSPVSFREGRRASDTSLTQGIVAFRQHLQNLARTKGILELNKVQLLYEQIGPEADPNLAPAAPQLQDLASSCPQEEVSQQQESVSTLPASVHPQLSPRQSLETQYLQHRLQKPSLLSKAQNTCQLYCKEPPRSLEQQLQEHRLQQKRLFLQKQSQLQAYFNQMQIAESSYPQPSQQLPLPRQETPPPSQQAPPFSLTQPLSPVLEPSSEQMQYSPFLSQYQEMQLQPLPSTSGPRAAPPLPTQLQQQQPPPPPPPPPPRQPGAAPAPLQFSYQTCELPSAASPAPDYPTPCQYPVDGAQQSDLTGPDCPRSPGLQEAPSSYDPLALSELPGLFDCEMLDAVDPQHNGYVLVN
Outline: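 Full-length SIK2 preincubated 60 min with 0–10 μM compound, then reacted 180 min at room temperature with 80 uM ATP and 0.5 μM biotinylated substrate (pH 7.5 Tris/MgCl2 buffer). Phosphorylation detected by TR-FRET (665/620 nm ratio, cryptate antibody/streptavidin-XL665) after overnight incubation; IC50 from four-parameter logistic fit.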

T1 sequence (P57059 1-303): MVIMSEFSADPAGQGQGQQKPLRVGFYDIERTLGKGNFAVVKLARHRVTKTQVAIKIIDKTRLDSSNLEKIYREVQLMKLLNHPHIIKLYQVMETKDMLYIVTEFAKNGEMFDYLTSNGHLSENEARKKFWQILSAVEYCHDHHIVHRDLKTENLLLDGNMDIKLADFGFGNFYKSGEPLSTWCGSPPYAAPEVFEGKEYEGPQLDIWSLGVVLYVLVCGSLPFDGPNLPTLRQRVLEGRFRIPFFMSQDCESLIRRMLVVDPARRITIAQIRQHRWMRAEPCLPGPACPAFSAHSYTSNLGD

| SMILES | IC50 [1] [nM] | IC50 [2] [nM] | IC50 [3] [nM] |
| --- | --- | --- | --- |
| COc1cc(-c2coc3cc(OCCN4CCC[C@H](C)C4)ccc23)cc(OC(F)F)c1C(=O)N[C@@H]1C[C@@H]1F [Compound 88, 2-(difluoromethoxy)-N-((1R,2S)-2-fluorocyclopropyl)-6-methoxy-4-(6-(2-((S)-3-methylpiperidin-1-yl)ethoxy)benzofuran-3-yl)benzamide] | 4540 | 68 | 17 |
| COc1cc(-c2coc3cc(OCCN4CCC[C@@H](C)C4)ccc23)cc(OC(F)F)c1C(=O)N[C@@H]1C[C@@H]1F [Compound 89, 2-(difluoromethoxy)-N-((1R,2S)-2-fluorocyclopropyl)-6-methoxy-4-(6-(2-((R)-3-methylpiperidin-1-yl)ethoxy)benzofuran-3-yl)benzamide] | 4210 | 74 | 24 |
| COc1cc(-c2coc3cc(OCCN4CCCC[C@H]4C)ccc23)cc(OC(F)F)c1C(=O)N[C@@H]1C[C@@H]1F [Compound 92, 2-(difluoromethoxy)-N-((1R,2S)-2-fluorocyclopropyl)-6-methoxy-4-(6-(2-((R)-2-methylpiperidin-1-yl)ethoxy)benzofuran-3-yl)benzamide] | 3010 | 104 | 32 |
| COc1cc(-c2coc3cc(OCCN4CCC(C)(C)C4)ccc23)cc(OC(F)F)c1C(=O)N[C@@H]1C[C@@H]1F [Compound 93, 2-(difluoromethoxy)-4-(6-(2-(3,3-dimethylpyrrolidin-1-yl)ethoxy)benzofuran-3-yl)-N-((1R,2S)-2-fluorocyclopropyl)-6-methoxybenzamide] | 2530 | 60 | 30 |
| COc1cc(-c2coc3cc(OCCN4CCC(C)CC4)ccc23)cc(OC(F)F)c1C(=O)N[C@@H]1C[C@@H]1F [Compound 94, 2-(difluoromethoxy)-N-((1R,2S)-2-fluorocyclopropyl)-6-methoxy-4-(6-(2-(4-methylpiperidin-1-yl)ethoxy)benzofuran-3-yl)benzamide] | 2870 | 74 | 33 |
| COc1cc(-c2coc3cc(OCCN4CCCC4C(F)(F)F)ccc23)cc(OC(F)F)c1C(=O)N[C@@H]1C[C@@H]1F (stereo partly drawn) [Compound 95, 2-(difluoromethoxy)-N-((1R,2S)-2-fluorocyclopropyl)-6-methoxy-4-(6-(2-(2-(trifluoromethyl)pyrrolidin-1-yl)ethoxy)benzofuran-3-yl)benzamide] | > 10000 | 117 | 507 |
| COc1cc(-c2coc3cc(OCCN4CCCC4)ccc23)cc(OC(F)F)c1C(=O)N[C@@H]1C[C@H]1F [Compound 97, 2-(difluoromethoxy)-N-((1R,2R)-2-fluorocyclopropyl)-6-methoxy-4-(6-(2-(pyrrolidin-1-yl)ethoxy)benzofuran-3-yl)benzamide] | 8350 | 289 | 85 |
| COc1cc(-c2coc3cc(OCCN4CCCC4)ccc23)cc(OC(F)F)c1C(=O)N[C@H]1C[C@H]1F [Compound 98, 2-(difluoromethoxy)-N-((1S,2R)-2-fluorocyclopropyl)-6-methoxy-4-(6-(2-(pyrrolidin-1-yl)ethoxy)benzofuran-3-yl)benzamide] | > 10000 | 525 | 128 |
| COc1cc(-c2coc3cc(OCCN4CCCC4)ccc23)cc(OC(F)F)c1C(=O)N[C@H]1C[C@@H]1F [Compound 99, 2-(difluoromethoxy)-N-((1S,2S)-2-fluorocyclopropyl)-6-methoxy-4-(6-(2-(pyrrolidin-1-yl)ethoxy)benzofuran-3-yl)benzamide] | > 10000 | 759 | 269 |
| COc1cc(-c2coc3cc(OCCN4CCCC4)ccc23)cc(OC(F)F)c1C(=O)NC1CC1(F)F (stereo not drawn) [Compound 100, N-(2,2-difluorocyclopropyl)-2-(difluoromethoxy)-6-methoxy-4-(6-(2-(pyrrolidin-1-yl)ethoxy)benzofuran-3-yl)benzamide] | 3590 | 80 | 31 |
| O=C(NC1CC1)c1c(OC(F)F)cc(-c2coc3cc(OCCN4CCCC4)ccc23)cc1O[C@H]1CC[C@H](O)CC1 [Compound 101, N-cyclopropyl-2-(difluoromethoxy)-6-(((1r,4r)-4-hydroxycyclohexyl)oxy)-4-(6-(2-(pyrrolidin-1-yl)ethoxy)benzofuran-3-yl)benzamide] | > 10000 | > 10000 | 8970 |
| O=C(NC1CC1)c1c(OC(F)F)cc(-c2coc3cc(OCCN4CCCC4)ccc23)cc1O[C@H]1CC[C@@H](O)CC1 [Compound 102, N-cyclopropyl-2-(difluoromethoxy)-6-(((1s,4s)-4-hydroxycyclohexyl)oxy)-4-(6-(2-(pyrrolidin-1-yl)ethoxy)benzofuran-3-yl)benzamide] | > 10000 | > 10000 | 2480 |

The remaining molecules from weak to strong by IC50 [1], led by results:

| IC50 [1] [nM] | IC50 [2] [nM] | IC50 [3] [nM] | SMILES |
| --- | --- | --- | --- |
| 2500 | 74 | 31 | COc1cc(-c2coc3cc(OCCN4CCCC[C@@H]4C)ccc23)cc(OC(F)F)c1C(=O)N[C@@H]1C[C@@H]1F [Compound 91, 2-(difluoromethoxy)-N-((1R,2S)-2-fluorocyclopropyl)-6-methoxy-4-(6-(2-((S)-2-methylpiperidin-1-yl)ethoxy)benzofuran-3-yl)benzamide] |
| 2350 | 33 | 13 | COc1cc(-c2coc3cc(OCCN4CC[C@H](C(C)C)C4)ccc23)cc(OC(F)F)c1C(=O)N[C@@H]1C[C@@H]1F [Compound 90, 2-(difluoromethoxy)-N-((1R,2S)-2-fluorocyclopropyl)-4-(6-(2-((R)-3-isopropylpyrrolidin-1-yl)ethoxy)benzofuran-3-yl)-6-methoxybenzamide] |
| 2040 | 43 | 22 | CC[C@H]1CCN(CCOc2ccc3c(-c4cc(OC)c(C(=O)N[C@@H]5C[C@@H]5F)c(OC(F)F)c4)coc3c2)C1 [Compound 96, 2-(difluoromethoxy)-4-(6-(2-((S)-3-ethylpyrrolidin-1-yl)ethoxy)benzofuran-3-yl)-N-((1R,2S)-2-fluorocyclopropyl)-6-methoxybenzamide] |
| 1890 | 32 | 11 | COc1cc(-c2coc3cc(OCCN4CC[C@H](C)C4)ccc23)cc(OC(F)F)c1C(=O)N[C@@H]1C[C@@H]1F [Compound 81, 2-(difluoromethoxy)-N-((1R,2S)-2-fluorocyclopropyl)-6-methoxy-4-(6-(2-((S)-3-methylpyrrolidin-1-yl)ethoxy)benzofuran-3-yl)benzamide] |
| 1470 | 57 | 15 | COc1cc(-c2coc3cc(OCCN4CC[C@H](OC)C4)ccc23)cc(OC(F)F)c1C(=O)N[C@@H]1C[C@@H]1F [Compound 82, 2-(difluoromethoxy)-N-((1R,2S)-2-fluorocyclopropyl)-6-methoxy-4-(6-(2-((S)-3-methoxypyrrolidin-1-yl)ethoxy)benzofuran-3-yl)benzamide] |
| 1090 | 22 | 78 | COc1cc(-c2coc3cc(OCCN4CCC(F)(F)C4)ccc23)cc(OC(F)F)c1C(=O)N[C@@H]1C[C@@H]1F [Compound 87, 2-(difluoromethoxy)-4-(6-(2-(3,3-difluoropyrrolidin-1-yl)ethoxy)benzofuran-3-yl)-N-((1R,2S)-2-fluorocyclopropyl)-6-methoxybenzamide] |
| 737 | 75 | 13 | COc1cc(-c2coc3cc(OCCN4CCN(C)CC4)ccc23)cc(OC(F)F)c1C(=O)N[C@@H]1C[C@@H]1F [Compound 83, 2-(difluoromethoxy)-N-((1R,2S)-2-fluorocyclopropyl)-6-methoxy-4-(6-(2-(4-methylpiperazin-1-yl)ethoxy)benzofuran-3-yl)benzamide] |
| 562 | 43 | 18 | COc1cc(-c2coc3cc(OCCCN4CCOCC4)ccc23)cc(OC(F)F)c1C(=O)N[C@@H]1C[C@@H]1F [Compound 86, 2-(difluoromethoxy)-N-((1R,2S)-2-fluorocyclopropyl)-6-methoxy-4-(6-(3-morpholinopropoxy)benzofuran-3-yl)benzamide] |
| 559 | 44 | 9 | COc1cc(-c2coc3cc(OCCCN4CCCCC4)ccc23)cc(OC(F)F)c1C(=O)N[C@@H]1C[C@@H]1F [Compound 84, 2-(difluoromethoxy)-N-((1R,2S)-2-fluorocyclopropyl)-6-methoxy-4-(6-(3-(piperidin-1-yl)propoxy)benzofuran-3-yl)benzamide] |
| 236 | 32.8 | 8.1 | COc1cc(-c2coc3cc(OCCCN4CCN(C)CC4)ccc23)cc(OC(F)F)c1C(=O)N[C@@H]1C[C@@H]1F [Compound 85, 2-(difluoromethoxy)-N-((1R,2S)-2-fluorocyclopropyl)-6-methoxy-4-(6-(3-(4-methylpiperazin-1-yl)propoxy)benzofuran-3-yl)benzamide] |
